Data published in US20220054496A1, “MODULATION OF TRF1 FOR BRAIN CANCER TREATMENT” (Fundación Del Sector Público Estatal Centro Nacional De …, priority 2018, published 2022).
“Also recorded” adds a separate entry of the source.

Experiments:
TRF1 [1] = test: Screening of ETP-antitumoral library / phenotypic assay of TRF1 levels in CHA-9.3 cells; assay type: cell-based, mouse; details: for inhibition of TRF1 protein levels / TRF1 modulation in the screening: CHA-9.3 mouse lung cancer cell line, 1 μM, 24 h; for modulation of TRF1 levels by tubulin agents (validation): immunofluorescence
Description: All of them were tested at 1 μM during 24 h in the phenotypic assay that measure TRF1 levels.

TRF1 [2] = test: Western blot of TRF1 protein levels in h676 GSCs; assay type: cell-based, human; details: 1 μM, 24 h
Description: FIG. 46. Screening of ETP-antitumoral library: Identification of TRF1 modulators in compounds approved by FDA or in clinical trials. (A) Drugs in ETP-antitumoral library distribution in Reactome Pathways. (B) Opera High ContentScreening system was used to identify compounds with the ability to inhibit TRF1, from representative images of confocal validation obtained from cells treated with DMSO (upper photograph of the right side of the panel and b) 1 μM of the tested compound, and determining the signal corresponding to TRF1 foci; TRF1 foci (green signal) can be appreciated clearly in the upper on the nuclear staining with DAPI (blue signal), but they have decreased in the lower photograph. (C) Representation of the inhibition of TRF1 levels by drugs belonging to different signaling pathways that modulate TRF1 at telomeres. Bar fillings vary depending on the signaling pathway. The results corresponding to three PI3K inhibitors inside the ETP-antitumoral library are represented by the three first bars from the right, validating the screening. (D) Structurally diverse MEK inhibitors tested in the chemical biology validation of the MEK/ERK pathway as modulator of TRF1 levels. (E) Structurally diverse ERK inhibitors tested in the chemical biology validation of the MEK/ERK pathway as modulator of TRF1 levels. (F) Inhibition of TRF1 levels by the MEK and ERK inhibitors represented in (D) and (E), respectively, measured by immunofluorescence. (G) Structurally diverse HSP90 inhibitors tested in the chemical biology validation of HSP90 pathway as modulator of TRF1 levels. (H) Inhibition of TRF1 levels by the HSP90 inhibitors represented in (G), measured by immunofluorescence. (I) Structurally diverse tubulin agent tested in the chemical biology validation of tubulin agents as modulator of TRF1 levels. (J) Inhibition of TRF1 levels by the tubulin agents represented in (I), measured by immunofluorescence. (K) Western Blot (up) and quantification (down) of TRF1 protein levels in the h676 GSCs after 24 h treatment with 1 μM of the indicated compounds. Data are represented as mean±SD. n represents biological replicates. Statistical analysis: unpaired t-test.
(§1) Nuclear protein extracts were obtained using Nuclear Cytosolic Fractionation Kit (Biovision) and protein concentration was determined using the Bio-Rad DC Protein Assay (Bio-Rad). Up to 15 μg of protein per extract were separated in SDS-polyacrylamide gels by electrophoresis. After protein transfer onto nitrocellulose membrane (Whatman), the membranes were incubated with the indicated antibodies. Antibody binding was detected after incubation with a secondary antibody coupled to horseradish peroxidase using chemiluminescence with ECL detection KIT (GE Healthcare)
The present inventors treated GSCs for 24 h at 1 μM concentration and assessed TRF1 protein levels by western blot.

p-AKT = p-AKT activation (p-AKT/AKT western blot) in h676 GSCs; assay type: cell-based, human; details: 1 μM, 24 h
Description: FIG. 47. […] Western Blot (up) and quantification (down) of p-AKT/AKT ratio in the h676 GSCs after 24 h treatment with 1 μM of the indicated compounds. Data are represented as mean±SD. n represents biological replicates.
The present inventors have confirmed the modulation of TRF1 through the PI3K-AKT pathway (Méndez-Pertuz et al., 2017). In order to check whether the novel compounds act independently of this pathway, the present inventors treated the cells for 24 h at 1 μM concentration and checked p-AKT activation. They also included in this analysis some compounds previously identified by the same research group: namely ETP-47037 (PI3Ki) (García-Beccaria et al., 2015), and ETP-50946 (FIG. 47, right graph of the lower part).

TRF1 [3] = test: TRF1 nuclear immunofluorescence (TRF1 foci) in U251 cells; assay type: cell-based, human; details: 10 μM, 24 h or 48 hr
Description: For immunofluorescence analyses, cells were plated in a proper density in cell culture μCLEAR plates (Greiner) and fixed in 4% formaldehyde in PBS. Cells were permeabilized with 0.25% Triton in PBS and blocked with 5% BSA in PBS. Tissue sections were fixed in 10% buffered formalin (Sigma) and embedded in paraffin. After deparaffinization and citrate antigen retrieval, sections were permeabilized with 0.5% Triton in PBS and blocked with 1% BSA and 10% Australian FBS ([…]) in PBS. The antibodies were applied overnight in antibody diluents with background reducing agents (Invitrogen).
Immunofluorescence images were obtained using a confocal ultraspectral microscope (Leica TCS-SP5) or the Opera High Content Screening (HCS) system (Perkin Elmer). Quantifications were performed with Definiens software.
(§2) For in vitro studies, ETP-47228 ETP-47037 and ETP-50946 were dissolved in DMSO at a final concentration of 10 or 5 mM. Cells were treated at a concentration of 10 μM for 24 h or 48 hr.
(§3) To address whether these small molecules could represent a new therapeutic strategy for the treatment of GBM, the present inventors first tested the ability of the three independent TRF1 inhibitory molecules (ETP-47228, ETP-47037 and ETP-50946) to downregulate TRF1 protein levels in the U251 human GBM cell line.

TRF1 [4] = test: Western blot of total TRF1 protein in U251 cells; assay type: cell-based, human; details: 10 μM, 24 h or 48 hr
Description: as §1
Quantifications: Protein-band intensities were measured with ImageJ software and normalized against the loading control.
as §2, §3

U251 cells = test: Neurosphere formation assay in U251 cells; assay type: cell-based, human; details: U251 in NSC media; seven days; vs DMSO
Description: (§4) Spheres were dissociated into single cells and seeded at a density of 50, 100, 200 and 400 cells/well in a 96 well plate. Neurosphere number was assessed after 7 days. Pictures were taken using Nikon Eclipse Ti-U microscope and neurosphere diameter was measured using NIS Elements BR software.
Finally, the present inventors checked if the three chemical compounds had the ability to reduce sternness in these cells. They cultured U251 cells with NSC media in order to obtain a suspension culture enriched in stem cells. The inventors performed a sphere formation assay with these cells treated with ETP-47228, ETP-47037 and ETP-50946 or DMSO for seven days. […] Of note, all these effects recapitulated what the present inventors observed with Trf1 genetic downregulation (See 2.2).

h676 GSCs [5] = test: Sphere formation assay in patient-derived h676 GSCs; assay type: cell-based, human; details: for diameter of spheres / number of spheres: vs untreated controls; for sphere formation, dose-response: 7 days
Description: (§5) FIG. 48. […] (A) Dose-response curves of the h676 GSCs treated 7 days with the indicated compounds. (B) Dose-response curves of the h543 GSCs treated 7 days with the indicated compounds. Data are represented as mean±SD.
as §4
(§6) Given the promising results the present inventors obtained with the TRF1 chemical modulators in the U251 GBM cell line, the present inventors next set to address the effects of these compounds in two independent patient-derived primary GSCs (h543 and h676) cultures.
(§7) Next, the present inventors set to address whether the different compounds were able to block sphere formation in the h676 and h543 GSCs.

h543 GSCs = test: Sphere formation assay in patient-derived h543 GSCs; assay type: cell-based, human; details: for diameter of spheres / number of spheres: vs untreated controls; for sphere formation, dose-response: 7 days
Description: as §5, §4, §6, §7

[6] = test system: K-Ras^G12V-induced lung tumors; details: p53-deficient background; cited from earlier work
h676 GSCs [7] = test: Drug combination studies (sphere number and diameter) in h676 GSCs; assay type: cell-based, human; details: number and diameter of spheres, 7 days
From the text: FIG. 51. […] (A-F) Quantification of number of spheres (up) and diameter (down) in h676 GSCs treated with the indicated compounds. Representative image of the spheres (left). Data are represented as mean±SD (up) or mean±SD (down), n represents biological replicates (up) or number of spheres (down). Statistical analysis: unpaired t-test.
Using this concentration as a reference point, the present inventors designed a combinatorial matrix using different concentrations of the compounds (e.g. 2×GI50, GI50 and ½ GI50) to study all the possible combinations. Combination index is calculated to establish if the combination is synergistic, additive or antagonistic (FIG. 50A).

Structure (SMILES)	inhibition of TRF1 protein levels / TRF1 modulation in the screening (TRF1 [1])	degree of TRF1 inhibition (TRF1 protein levels by western blot) (TRF1 [2])	dependence on p-AKT (p-AKT activation) (p-AKT)	synergic effect in combination with PI3Ki (ETP-47037) (h676 GSCs [7])	other results
COc1cc(Nc2ncc3c(n2)-c2ccc(Cl)cc2C(c2c(F)cccc2OC)=NC3)ccc1C(=O)O [Alisertib]	inhibit TRF1 protein levels; also recorded: novel TRF1 modulators	no ability to downregulate TRF1	act independently of p-AKT		
Cc1cnc2c(N3CCOCC3)nc(-c3ccc(NC(=O)Nc4ccc(C(=O)N5CCN(C)CC5)cc4)cc3)cn12 [ETP-47228]					TRF1 foci (immunofluorescence) (TRF1 [3]): effectively reduced; total TRF1 protein levels (western blot) (TRF1 [4]): effectively reduced; diameter of neurospheres (U251 cells): strong reduction; number of neurospheres (U251 cells): strong reduction; diameter of spheres (h676 GSCs [5]): significant drastic reduction; number of spheres (h676 GSCs [5]): significant drastic reduction; diameter of spheres (h543 GSCs): significant drastic reduction; number of spheres (h543 GSCs): significant drastic reduction; growth of already established lung adenocarcinomas [6]: effectively impair the growth
C[C@@H](Oc1cc(-n2cnc3ccc(CN4CCN(C)CC4)cc32)sc1C(N)=O)c1ccccc1C(F)(F)F [GSK461364]	inhibit TRF1 protein levels; also recorded: novel TRF1 modulators	no ability to downregulate TRF1	p-AKT dependent		
Nc1ccn([C@@H]2O[C@H](CO)[C@@H](O)C2(F)F)c(=O)n1 [Gemcitabine]	inhibit TRF1 protein levels; also recorded: novel TRF1 modulators	medium TRF1 modulators	act independently of p-AKT	significant synergic effect	sphere formation, dose-response (h676 GSCs [5]): most potent compounds; sphere formation, dose-response (h543 GSCs): most potent compounds
CC(=O)O[C@@]12CO[C@@H]1C[C@H](O)[C@@]1(C)C(=O)[C@H](O)C3=C(C)[C@@H](OC(=O)[C@H](O)[C@@H](NC(=O)OC(C)(C)C)c4ccccc4)C[C@@](O)([C@@H](OC(=O)c4ccccc4)[C@H]21)C3(C)C [Docetaxel]	inhibit TRF1 protein levels; also recorded: novel TRF1 modulators	medium TRF1 modulators	act independently of p-AKT	significant synergic effect	sphere formation, dose-response (h676 GSCs [5]): most potent compounds; sphere formation, dose-response (h543 GSCs): most potent compounds; modulation of TRF1 levels by tubulin agents (validation) (TRF1 [1]): more strongly
NC(Cc1ccccc1)c1csc(Nc2ncccn2)n1 (racemic) [ETP-50946]					TRF1 foci (immunofluorescence) (TRF1 [3]): effectively reduced; total TRF1 protein levels (western blot) (TRF1 [4]): effectively reduced; diameter of neurospheres (U251 cells): strong reduction; number of neurospheres (U251 cells): strong reduction; diameter of spheres (h676 GSCs [5]): significant drastic reduction; number of spheres (h676 GSCs [5]): significant drastic reduction; diameter of spheres (h543 GSCs): significant drastic reduction; number of spheres (h543 GSCs): significant drastic reduction
O=C(Nc1ccc2[nH]nc(-c3ccncc3)c2c1)[C@@H]1CCN(CC(=O)N2CCN(c3ccc(-c4ncccn4)cc3)CC2)C1 [SCH772984]	novel TRF1 modulators	potent TRF1 modulators	act independently of p-AKT	significant synergic effect	inhibition of TRF1 protein levels / TRF1 modulation in the screening (TRF1 [1]; listed as ERKi): inhibit TRF1 protein levels
CC(=O)O[C@H]1C(=O)[C@@]2(C)[C@H]([C@H](OC(=O)c3ccccc3)[C@]3(O)C[C@H](OC(=O)[C@H](O)[C@@H](NC(=O)c4ccccc4)c4ccccc4)C(C)=C1C3(C)C)[C@]1(OC(C)=O)CO[C@@H]1C[C@@H]2O [paclitaxel]					modulation of TRF1 levels by tubulin agents (validation) (TRF1 [1]): more strongly
COc1ccc(-c2ccc3c(N4CCOCC4)nc(N4C[C@@H](C)O[C@@H](C)C4)nc3n2)cc1CO [KU-0063794]	inhibit TRF1 protein levels; also recorded: novel TRF1 modulators	medium TRF1 modulators	p-AKT dependent		
CN1CC[C@H](c2c(O)cc(O)c3c(=O)cc(-c4ccccc4Cl)oc23)[C@H](O)C1 [Flavopiridol]	inhibit TRF1 protein levels; also recorded: novel TRF1 modulators	medium TRF1 modulators	act independently of p-AKT		
